Tested on: ALP in normal human articular chondrocytes (NHACs)
Test: Alkaline Phosphatase (ALP) activity assay (staining and quantitation) in NHACs, prevention of chondrocyte hypertrophy
Format: cell-based
Conditions: Chondrocyte, 288 h, human IL-1 beta 10 ng/mL, 12 days; for IC50: Fast Blue RR staining, high content imaging, read-out: ALP in NHAC IC50; for Emax: value in parentheses, read-out: ALP in NHAC (% Efficacy)
Description: The compounds of the present invention were evaluated in the Alkaline Phosphatase (ALP) activity assay to determine the ability of the compounds to prevent chondrocyte hypertrophy in normal human articular chondrocytes (NHACs).
Normal human articular chondrocytes (NHACs) were purchased from PromoCell (Heidelberg, Germany) and grown in Chondrocyte Growth Medium (CGM; Lonza, Walkersville, Md.).
NHACs were expanded in Chondrocyte Growth Medium (CGM) from Lonza until they reached a 60-80% confluency. To initiate differentiation, 7,500 cells were plated/well with indicated test compound dose in 384-well Cell Carrier Ultra plates (Perkin Elmer) with DMEM (SH30022—HyClone) containing 10% FBS (35-015-CV—Corning), 1% Pen/Strep antibiotics (SV30010—HyClone), and 1% Normocin (50 mg/mL—InvivoGen). Cells with test compounds were incubated at 37° C., 5% CO2 for 5 hours and then added human IL-1 beta (AF-200-1B—Peprotech) to each well at a final concentration of 10 ng/mL and incubated at 37° C., 5% CO2 for 12 days.
To detect the presence of hypertrophic cells, NHACs were fixed with 4% paraformaldehyde and Hoechst 33342 (Invitrogen) dye for 30 minutes, rinsed in PBS, then stained with Fast Blue RR Salt (F0500—Sigma) with Naphthol AS-MX Phosphate Alkaline Solution, 0.25% (855—Sigma-Aldrich).
The staining was imaged by fluorescent microscopy, using the 561 nm wavelength, and/or quantified by high content imaging with the Image press Confocal (Molecular Devices, Sunnyvale, Calif.). Data analyses were performed with a customized multiwavelength cell-scoring application.

SMILES	IC50	Emax
COc1ccc(NC(=O)[C@@H]2[C@@H](c3cn(C)nc3C(F)(F)F)[C@H]3O[C@@H]2C[C@@H]3O)cc1C(F)(F)F (racemic) [Example 31, rac-(1R,2R,3S,4R,5S)-5-hydroxy-N-(4-methoxy-3-(trifluoromethyl)phenyl)-3-(1-methyl-3-(trifluoromethyl)-1H-pyrazol-4-yl)-7-oxabicyclo[2.2.1]heptane-2-carboxamide]	3.1 µM	102%
Cn1cc([C@H]2[C@H]3O[C@H](C[C@@H]3O)[C@@H]2C(=O)Nc2cccc(C(F)(F)F)c2)c(C(F)(F)F)n1 (racemic) [Example 32, rac-(1R,2R,3S,4R,5S)-5-hydroxy-3-(1-methyl-3-(trifluoromethyl)-1H-pyrazol-4-yl)-N-(3-(trifluoromethyl)phenyl)-7-oxabicyclo[2.2.1]heptane-2-carboxamide]	7.2 µM	78%
COc1ccc(C(F)(F)F)cc1NC(=O)[C@@H]1[C@@H](c2cn(C)nc2C(F)(F)F)[C@H]2O[C@@H]1C[C@@H]2O (racemic) [Example 33, rac-(1R,2R,3S,4R,5)-5-hydroxy-N-(2-methoxy-5-(trifluoromethyl)phenyl)-3-(1-methyl-3-(trifluoromethyl)-1H-pyrazol-4-yl)-7-oxabicyclo[2.2.1]heptane-2-carboxamide]	2.8 µM	74%
Cn1cc([C@H]2[C@H]3O[C@H](C[C@@H]3O)[C@@H]2C(=O)Nc2cc(Cl)cc(C(F)(F)F)c2)c(C(F)(F)F)n1 (racemic) [Example 34, rac-(1R,2R,3S,4R,5)-N-(3-chloro-5-(trifluoromethyl)phenyl)-5-hydroxy-3-(1-methyl-3-(trifluoromethyl)-1H-pyrazol-4-yl)-7-oxabicyclo[2.2.1]heptane-2-carboxamide]	6.5 µM	101%
Cn1cc([C@H]2[C@H]3O[C@H](C[C@@H]3O)[C@@H]2C(=O)Nc2cc(C(F)(F)F)cc(Cl)n2)c(C(F)(F)F)n1 (racemic) [Example 35, rac-(1R,2R,3S,4R,5S)—N-(6-chloro-4-(trifluoromethyl)pyridin-2-yl)-5-hydroxy-3-(1-methyl-3-(trifluoromethyl)-1H-pyrazol-4-yl)-7-oxabicyclo[2.2.1]heptane-2-carboxamide]	9.8 µM	83%
Cn1cc([C@H]2[C@H]3O[C@H](C[C@@H]3O)[C@@H]2C(=O)Nc2cc(C(F)(F)F)c(Cl)cn2)c(C(F)(F)F)n1 (racemic) [Example 36, rac-(1R,2R,3S,4R,5S)—N-(5-chloro-4-(trifluoromethyl)pyridin-2-yl)-5-hydroxy-3-(1-methyl-3-(trifluoromethyl)-1H-pyrazol-4-yl)-7-oxabicyclo[2.2.1]heptane-2-carboxamide]	3.6 µM	92%
Cn1cc([C@H]2[C@H]3O[C@H](C[C@@H]3O)[C@@H]2C(=O)Nc2ccc(N3CCOCC3)c(C(F)(F)F)c2)c(C(F)(F)F)n1 (racemic) [Example 37, rac-(1R,2R,3S,4R,5S)-5-hydroxy-3-(1-methyl-3-(trifluoromethyl)-1H-pyrazol-4-yl)-N-(4-morpholino-3-(trifluoromethyl)phenyl)-7-oxabicyclo[2.2.1]heptane-2-carboxamide]	> 30 µM	45%
Cn1cc([C@H]2[C@H]3O[C@H](C[C@@H]3O)[C@@H]2C(=O)Nc2cc(C(F)(F)F)ccn2)c(C(F)(F)F)n1 (racemic) [Example 38, rac-(1R,2R,3S,4R,5S)-5-hydroxy-3-(1-methyl-3-(trifluoromethyl)-1H-pyrazol-4-yl)-N-(4-(trifluoromethyl)pyridin-2-yl)-7-oxabicyclo[2.2.1]heptane-2-carboxamide]	3.6 µM	94%
CCOc1cc(C(F)(F)F)cc(NC(=O)[C@@H]2[C@@H](c3cn(C)nc3C(F)(F)F)[C@H]3O[C@@H]2C[C@@H]3O)n1 (racemic) [Example 39, rac-(1R,2R,3S,4R,5S)—N-(6-ethoxy-4-(trifluoromethyl)pyridin-2-yl)-5-hydroxy-3-(1-methyl-3-(trifluoromethyl)-1H-pyrazol-4-yl)-7-oxabicyclo[2.2.1]heptane-2-carboxamide]	4 µM	64%
Cn1cc([C@H]2[C@H]3O[C@H](C[C@@H]3O)[C@@H]2C(=O)Nc2cc(C(F)(F)F)cc(C3CC3)n2)c(C(F)(F)F)n1 (racemic) [Example 40, rac-(1R,2R,3S,4R,5S)—N-(6-cyclopropyl-4-(trifluoromethyl)pyridin-2-yl)-5-hydroxy-3-(1-methyl-3-(trifluoromethyl)-1H-pyrazol-4-yl)-7-oxabicyclo[2.2.1]heptane-2-carboxamide]	10 µM	83%
Cc1cc(C(F)(F)F)cc(NC(=O)[C@@H]2[C@@H](c3cn(C)nc3C(F)(F)F)[C@H]3O[C@@H]2C[C@@H]3O)n1 (racemic) [Example 41, rac-(1R,2R,3S,4R,5S)-5-hydroxy-3-(1-methyl-3-(trifluoromethyl)-1H-pyrazol-4-yl)-N-(6-methyl-4-(trifluoromethyl)pyridin-2-yl)-7-oxabicyclo[2.2.1]heptane-2-carboxamide]	6.3 µM	61%
Cc1c(NC(=O)[C@@H]2[C@@H](c3cn(C)nc3C(F)(F)F)[C@H]3O[C@@H]2C[C@@H]3O)cccc1C(F)(F)F (racemic) [Example 42, rac-(1R,2R,3S,4R,5S)-5-hydroxy-3-(1-methyl-3-(trifluoromethyl)-1H-pyrazol-4-yl)-N-(2-methyl-3-(trifluoromethyl)phenyl)-7-oxabicyclo[2.2.1]heptane-2-carboxamide]	> 30 µM	21%
Cn1cc([C@H]2[C@H]3O[C@H](C[C@@H]3O)[C@@H]2C(=O)Nc2ccc(F)c(C(F)(F)F)c2)c(C(F)(F)F)n1 (racemic) [Example 43]	7.9 µM	59%
CCOc1ccc(NC(=O)[C@@H]2[C@@H](c3cn(C)nc3C(F)(F)F)[C@H]3O[C@@H]2C[C@@H]3O)cc1C(F)(F)F (racemic) [Example 44, rac-(1R,2R,3S,4R,5S)—N-(4-ethoxy-3-(trifluormethyl)phenyl)-5-hydroxy-3-(1-methyl-3-(trifluoromethyl)-1H-pyrazol-4-yl)-7-oxabicyclo[2.2.1]heptane-2-carboxamide]	14 µM	89%
Cn1cc([C@H]2[C@H]3O[C@H](C[C@@H]3O)[C@@H]2C(=O)Nc2cc(F)cc(C(F)(F)F)c2)c(C(F)(F)F)n1 (racemic) [Example 45, rac-(1R,2R,3S,4R,5S)—N-(3-fluoro-5-(trifluoromethyl)phenyl)-5-hydroxy-3-(1-methyl-3-(trifluoromethyl)-1H-pyrazol-4-yl)-7-oxabicyclo[2.2.1]heptane-2-carboxamide]	7 µM	61%
N#Cc1ccc(NC(=O)[C@@H]2[C@@H](c3cccc(C(F)(F)F)c3)[C@H]3O[C@@H]2C[C@@H]3O)cc1C(F)(F)F (racemic) [Example 46, rac-(1R,2R,3S,4R,5S)—N-(4-cyano-3-trifluoromethyl)phenyl)-5-hydroxy-3-(3-(trifluoromethyl)phenyl)-7-oxabicyclo[2.2.1]heptane-2-carboxamide]	14 µM	50%
N#Cc1cc(NC(=O)[C@@H]2[C@@H](c3cccc(C(F)(F)F)c3)[C@H]3O[C@@H]2C[C@@H]3O)cc(C(F)(F)F)c1 (racemic) [Example 47, rac-(1R,2R,3S,4R,5S)—N-(3-cyano-5-(trifluoromethyl)phenyl)-5-hydroxy-3-(3-(trifluoromethyl)phenyl)-7-oxabicyclo[2.2.1]heptane-2-carboxamide]	5.5 µM	87%

From patent US12257243B2, “5-hydroxy-7-oxabicyclo[2.2.1]heptane-2-carboxamide derivatives for inducing chondrogenesis for treating joint damage” (NOVARTIS AG, priority 2018, dated 2025)
